System: T1, IRAK1/4 human
T1 construct: fused on or other part: His tag and TEV cleavage site at the N-terminus
Experiment: IRAK1/4 phosphorylation IC50 (enzymatic assay, table 2)
Format: biochemical
Conditions: human IRAK1/4 phosphorylation
In short: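 Human IRAK-1 or IRAK-4, each carrying a His-TEV tag, was incubated with ATP and compounds in DMSO ranging from 20 µM to 1 nM in 384-well plates, and IRAK-4 reactions also contained STK1-biotin peptide. Reactions ran in 50 mM Hepes pH7.0 with MgCl2, DTT, EGTA and BSA for 2 or 3 hours, with 2% DMSO controls. Inhibition is given as IC50.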

SMILES	IC50 [nM]
CC(C)Cc1ccc2[nH]nc(-c3cn(-c4ccc(C(=O)N5CCC(N(C)C)CC5)cc4)nn3)c2c1 [Example 139, 1-{4-[4(5-isobutyl-1H-indazol-3-yl)-1H-1,2,3-triazol-1-yl]benzoyl}-N,N-dimethylpiperidin-4-amine]	100 to 1000
CN1C2CCC1CC(n1cc(-n3cc(-c4n[nH]c5ccccc45)nn3)cn1)C2 (stereo not drawn) [Example 140, 3-{1-[1-(8-methyl-8-azabicyclo[3.2.1]oct-3-yl)-1H-pyrazol-4-yl]-1H-1,2,3-triazol-4-yl}-1H-indazole]	< 100
COC(=O)c1ccc2[nH]nc(-c3cn(-c4ccc(CN5CCOCC5)cc4)nn3)c2c1 [Example 142, methyl 3-{1-[4-(morpholin-4-ylmethyl)phenyl]-1H-1,2,3-triazol-4-yl}-1H-indazole-5-carboxylate]	100 to 1000
CN1CCC(NC(=O)c2ccc3[nH]nc(-c4cn(-c5ccc(CN6CCOCC6)cc5)nn4)c3c2)CC1 [Example 143, N-(1-methylpiperidin-4-yl)-3-{1-[4-(morpholin-4-ylmethyl)phenyl]-1H-1,2,3-triazol-4-yl}-1H-indazole-5-carboxamide]	100 to 1000
O=C(c1ccc(-n2cc(-c3n[nH]c4ccc(Cn5nc(-c6ccc(O)cc6)ccc5=O)cc34)nn2)cc1)N1CCOCC1 [Example 144, 6-(4-hydroxyphenyl)-2-[(3-{1-[4-(morpholin-4-ylcarbonyl)phenyl]-1H-1,2,3-triazol-4-yl}-1H-indazol-5-yl)methyl]pyridazin-3(2H)-one]	< 100
O=C(c1ccc(-n2cc(-c3n[nH]c4cc(C#CCO)ccc34)nn2)cc1)N1CCOCC1 [Example 146, 3-(3-{1-[4-(morpholin-4-ylcarbonyl)phenyl]-1H-1,2,3-triazol-4-yl}-1H-indazol-6-yl)prop-2-yn-1-ol]	100 to 1000
O=C(c1ccc(-n2cc(-c3n[nH]c4cc(CCCO)ccc34)nn2)cc1)N1CCOCC1 [Example 147, 3-(3-{1-[4-(morpholin-ylcarbonyl)phenyl]-1H-1,2,3-triazol-4-yl}-1H-indazol-6-yl)propan-1-ol]	100 to 1000
CN1CCCC(Nc2ccc3[nH]nc(-c4cn(-c5ccc(C(=O)N6CCOCC6)cc5)nn4)c3c2)C1 (stereo not drawn) [Example 148, N-(1-methylpiperidin-3-yl)-3-{1-[4-(morpholin-4-ylcarbonyl)phenyl]-1H-1,2,3-triazol-4-yl}-1H-indazol-5-amine]	< 100
CN(C)C1CCN(c2ccc3[nH]nc(-c4cn(-c5ccc(C(=O)N6CCOCC6)cc5)nn4)c3c2)C1 (stereo not drawn) [Example 149, N,N-dimethyl-1-(3-{1-[4-(morpholin-4-ylcarbonyl)phenyl]-1H-1,2,3-triazol-4-yl}-1H-indazol-5-yl)pyrrolidin-3-amine]	< 100
OC(c1ccc(-n2cc(-c3n[nH]c4ccccc34)nn2)cc1)C(F)(F)F (stereo not drawn) [Example 150, 2,2,2-trifluoro-1-{4-[4-(1H-indazol-3-yl)-1H-1,2,3-triazol-1-yl]phenyl}ethanol]	100 to 1000
O=C(c1ccc(-n2cc(-c3n[nH]c4ccc(OCCCO)cc34)nn2)cc1)N1CCOCC1 [Example 153, 3-[(3-{1-[4-(morpholin-4-ylcarbonyl)phenyl]-1H-1,2,3-triazol-4-yl}-1H-indazol-5-yl)oxy]propan-1-ol]	100 to 1000
O=C1C[C@H](OCc2ccc3[nH]nc(-c4cn(-c5ccc(C(=O)N6CCOCC6)cc5)nn4)c3c2)CO1 [Example 154, (4S)-4-[(3-{1-[4-(morpholin-4-ylcarbonyl)phenyl]-1H-1,2,3-triazol-4-yl}-1H-indazol-5-yl)methoxy]dihydrofuran-2(3H)-one]	100 to 1000
O=C(c1ccc(-n2cc(-c3n[nH]c4ccccc34)nn2)cn1)N1CCOCC1 [Example 155]	100 to 1000
O=C(c1ccc(-n2cc(-c3n[nH]c4ccc(C(F)(F)F)cc34)nn2)cc1)N1CCOCC1 [Example 156]	100 to 1000
O=C(c1ccc(-n2cc(-c3n[nH]c4ccc(F)cc34)nn2)cc1)N1CCOCC1 [Example 157]	100 to 1000
CN(C)C1CCN(C(=O)c2ccc(-n3cc(-c4n[nH]c5ccc(C(F)(F)F)cc45)nn3)cc2)CC1 [Example 159]	100 to 1000
CC1CN(C(=O)c2ccc(-n3cc(-c4n[nH]c5ccccc45)nn3)cc2)CCO1 (stereo not drawn) [Example 160]	100 to 1000
O=C(c1ccc(-n2cc(-c3n[nH]c4ccccc34)nn2)cc1)N1CCOC(CO)C1 (stereo not drawn) [Example 161]	100 to 1000
CC1(C)CN(C(=O)c2ccc(-n3cc(-c4n[nH]c5ccccc45)nn3)cc2)CCO1 [Example 162]	100 to 1000
CN1CCCC2(CCCN(C(=O)c3ccc(-n4cc(-c5n[nH]c6ccccc56)nn4)cc3)C2)C1=O (stereo not drawn) [Example 163]	100 to 1000

SMILES	IC50 [nM]
CCOCC1CCCN(C(=O)c2ccc(-n3cc(-c4n[nH]c5ccccc45)nn3)cc2)C1 (stereo not drawn) [Example 164]	100 to 1000
O=C(c1ccc(-n2cc(-c3n[nH]c4ccccc34)nn2)cc1)N1CCCC2(COC2)C1 [Example 165]	100 to 1000
O=C(c1ccc(-n2cc(-c3n[nH]c4ccccc34)nn2)cc1)N1CCN2CCCC2C1 (stereo not drawn) [Example 166]	100 to 1000
O=C(c1ccc(-n2cc(-c3n[nH]c4ccccc34)nn2)cc1)N1CCOC(CCO)C1 (stereo not drawn) [Example 167]	100 to 1000
COCCC1CN(C(=O)c2ccc(-n3cc(-c4n[nH]c5ccccc45)nn3)cc2)CCO1 (stereo not drawn) [Example 168]	100 to 1000
O=C(Nc1cnn(C2CCNC2)c1)c1ccc(-n2cc(-c3n[nH]c4ccccc34)nn2)cc1 (stereo not drawn) [Example 169]	100 to 1000
O=C(c1ccc(-n2cc(-c3n[nH]c4ccccc34)nn2)cc1)N1CC2(COC2)C1 [Example 170]	100 to 1000
CN(C(=O)c1ccc(-n2cc(-c3n[nH]c4ccccc34)nn2)cc1)C1CCOCC1 [Example 171]	100 to 1000
CN(C)C1CCN(C(=O)c2ccc(-n3cc(-c4n[nH]c5ccc(C6=CCCC6)cc45)nn3)cc2)CC1 [Example 172]	100 to 1000
CN(C)C1CCN(C(=O)c2ccc(-n3cc(-c4n[nH]c5ccc(C6=CCOCC6)cc45)nn3)cc2)CC1 [Example 173]	100 to 1000
CN(C)C1CCN(C(=O)c2ccc(-n3cc(-c4n[nH]c5ccc(C6=CCCCC6)cc45)nn3)cc2)CC1 [Example 174]	100 to 1000
Cc1cccc2[nH]nc(-c3cn(-c4ccc(C(=O)N5CCOCC5)cc4)nn3)c12 [Example 175]	1000 to 5000
O=C(Nc1cnn(CCc2ccncc2)c1)c1ccc(-n2cc(-c3n[nH]c4ccccc34)nn2)cc1 [Example 176]	100 to 1000
O=C(c1ccc(-n2cc(-c3n[nH]c4ccc(Cn5nc(-c6cccnc6)ccc5=O)cc34)nn2)cc1)N1CCOCC1 [Example 177]	< 100
CN(C)C1CCN(C(=O)c2ccc(-n3cc(-c4n[nH]c5ccc(C6CCOCC6)cc45)nn3)cc2)CC1 [Example 178]	100 to 1000
CN(C)C1CCN(C(=O)c2ccc(-n3cc(-c4n[nH]c5ccc(C6CCCCC6)cc45)nn3)cc2)CC1 [Example 179]	100 to 1000
c1ccc2c(-c3cn(-c4cnn(CCN5CCOCC5)c4)nn3)n[nH]c2c1 [Example 180]	100 to 1000
COc1cnccc1-c1ccc2[nH]nc(-c3cn(-c4ccc(C(=O)N5CCOCC5)cc4)nn3)c2c1 [Example 181]	100 to 1000
O=C(c1ccc(-n2cc(-c3n[nH]c4cccc(F)c34)nn2)cc1)N1CCOCC1 [Example 182]	1000 to 5000
CN(C)C1CCN(C(=O)c2ccc(-n3cc(-c4n[nH]c5ccc(C6CCCC6)cc45)nn3)cc2)CC1 [Example 183]	100 to 1000

SMILES	IC50 [nM]
Cc1ccc2c(-c3cn(-c4ccc(C(=O)N5CCOCC5)cc4)nn3)n[nH]c2c1 [Example 184]	< 100
O=C(c1ccc(-n2cc(-c3n[nH]c4cc(Cl)ccc34)nn2)cc1)N1CCOCC1 [Example 185]	100 to 1000
CN1CCC(n2cc(-n3cc(-c4n[nH]c5ccccc45)nn3)cn2)CC1 [Example 186]	< 100
OCc1ccc(-n2cc(-c3n[nH]c4ccccc34)nn2)cc1 [Example 187]	100 to 1000
COc1cc2[nH]nc(-c3cn(-c4ccc(C(=O)N5CCOCC5)cc4)nn3)c2cc1OC [Example 189]	100 to 1000
O=C(c1ccc(-n2cc(-c3n[nH]c4ccc(Cn5nc(-c6ccc(O)c(F)c6)ccc5=O)cc34)nn2)cc1)N1CCOCC1 [Example 190]	< 100
O=C(c1ccc(-n2cc(-c3n[nH]c4ccc(O)cc34)nn2)cc1)N1CCOCC1 [Example 192]	< 100
O=C(c1ccc(-n2cc(-c3n[nH]c4ccc(Cl)cc34)nn2)cc1)N1CCOCC1 [Example 193]	100 to 1000
O=C(c1ccc(-n2cc(-c3n[nH]c4cc(F)ccc34)nn2)cc1)N1CCOCC1 [Example 194]	100 to 1000
COc1ccc2c(-c3cn(-c4ccc(C(=O)N5CCOCC5)cc4)nn3)n[nH]c2c1 [Example 195]	100 to 1000
O=c1ccc(-c2ccncc2)nn1Cc1ccc2[nH]nc(-c3cn(-c4ccc(CN5CCOCC5)cc4)nn3)c2c1 [Example 196]	< 100
OCc1ccc2[nH]nc(-c3cn(-c4ccc(CN5CCOCC5)cc4)nn3)c2c1 [Example 198]	100 to 1000
O=c1ccc(-c2ccc(O)cc2)nn1Cc1ccc2[nH]nc(-c3cn(-c4ccc(CN5CCOCC5)cc4)nn3)c2c1 [Example 199]	100 to 1000
O=c1ccc(-c2cccc(O)c2)nn1Cc1ccc2[nH]nc(-c3cn(-c4ccc(CN5CCOCC5)cc4)nn3)c2c1 [Example 200]	< 100
C=C(C)c1ccc2c(-c3cn(-c4ccc(C(=O)N5CCOCC5)cc4)nn3)n[nH]c2c1 [Example 201]	100 to 1000
COc1cc2[nH]nc(-c3cn(-c4ccc(C(=O)N5CCOCC5)cc4)nn3)c2cc1Br [Example 202]	1000 to 5000
O=C(c1ccc(-n2cc(-c3n[nH]c4cc(-c5ccccc5)ccc34)nn2)cc1)N1CCOCC1 [Example 203]	1000 to 5000
c1ccc2c(-c3cn(-c4ccc(CC5CCNCC5)cc4)nn3)n[nH]c2c1 [Example 205]	100 to 1000
CC(C)c1ccc2c(-c3cn(-c4ccc(C(=O)N5CCOCC5)cc4)nn3)n[nH]c2c1 [Example 206]	100 to 1000
O=C(c1ccc(-n2cc(-c3n[nH]c4cc(-c5ccc(CO)cc5)ccc34)nn2)cc1)N1CCOCC1 [Example 207]	1000 to 5000
